{
  "source": "patent US20050153948A1",
  "about": "“Methods and formulations for the treatment of medical conditions related to elevated dihydrotestosterone” (Zomanex, LLC, priority 2003, published 2005)",
  "origin": "cited, not measured here",
  "key": {"[1]": {"conditions": "aqueous sterol/lecithin formulation, deuterated compounds, humans"}, "[2]": {"system": "circulating serum DHT", "conditions": "two clinical trials"}, "[3]": {"target": "T1, type II enzyme (5α-reductase) (Homo sapiens, UniProt P31213)", "T1 sequence (P31213 1-254)": "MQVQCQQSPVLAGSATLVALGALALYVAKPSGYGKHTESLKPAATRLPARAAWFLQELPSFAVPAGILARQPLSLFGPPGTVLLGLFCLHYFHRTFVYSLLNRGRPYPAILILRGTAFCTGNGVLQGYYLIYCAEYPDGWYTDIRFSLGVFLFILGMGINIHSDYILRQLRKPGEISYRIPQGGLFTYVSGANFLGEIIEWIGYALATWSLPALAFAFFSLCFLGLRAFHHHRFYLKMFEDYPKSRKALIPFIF", "conditions": "type II 5α-reductase; read-out: K1 for type II enzyme"}, "[4]": {"system": "prostate (benign prostatic hyperplasia)", "conditions": "long-term use; reduced from about 10 percent"}, "[5]": {"system": "prostate cancer", "conditions": "5 mg per day, seven-year trial; placebo group 24.4 percent"}, "[6]": {"target": "T2, Type I human reductase (Homo sapiens, UniProt P18405)", "T2 sequence (P18405 1-259)": "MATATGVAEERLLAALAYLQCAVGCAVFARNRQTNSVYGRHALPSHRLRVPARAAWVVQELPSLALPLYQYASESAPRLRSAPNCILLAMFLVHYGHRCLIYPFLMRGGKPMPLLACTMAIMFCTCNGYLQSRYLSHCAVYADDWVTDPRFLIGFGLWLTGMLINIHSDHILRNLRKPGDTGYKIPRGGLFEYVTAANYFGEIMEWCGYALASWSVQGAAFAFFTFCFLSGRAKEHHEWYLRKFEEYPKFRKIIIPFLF", "conditions": "Type I human 5α-reductase; read-out: K1 for Type I human reductase"}},
  "data": [
    {"smiles": "CC(C)[C@H](C)CC[C@@H](C)[C@H]1CC[C@H]2[C@@H]3CC=C4C[C@@H](O)CC[C@]4(C)[C@H]3CC[C@]12C", "note": "[campesterol]", "values": [
      {"measurement": "absorption relative to reduced derivatives sitostanol and campestanol", "setting": "[1]", "value": "about ten"}
    ]},
    {"smiles": "CC(C)(C)NC(=O)[C@H]1CC[C@H]2[C@@H]3CC[C@H]4NC(=O)C=C[C@]4(C)[C@H]3CC[C@]12C", "note": "[finasteride]", "values": [
      {"measurement": "reduction in circulating serum DHT", "setting": "[2]", "value": 65, "unit": "%"},
      {"measurement": "Ki", "setting": "[3]", "value": 12, "unit": "nM"},
      {"measurement": "need for surgical intervention for BPH", "setting": "[4]", "value": 5, "unit": "%"},
      {"measurement": "cumulative incidence of cancer", "setting": "[5]", "value": 18.4, "unit": "%"},
      {"measurement": "Ki", "setting": "[6]", "value": 325, "unit": "nM"}
    ]},
    {"smiles": "CC[C@H](CC[C@@H](C)[C@H]1CC[C@H]2[C@@H]3CC=C4C[C@@H](O)CC[C@]4(C)[C@H]3CC[C@]12C)C(C)C", "note": "[sitosterol]", "values": [
      {"measurement": "absorption relative to reduced derivatives sitostanol and campestanol", "setting": "[1]", "value": "about ten"}
    ]}
  ]
}
